Values of other authors in patent US20060045857A1, “Sunless tanning composition and methods for using” (priority 2004, published 2006).

Conditions: in vivo

| Substance | dermal toxicity |
| --- | --- |
| Poly(vinylpyrrolidone/1-hexadecene) [PVPH] | no demonstrable dermal toxicity |
| poly(vinylpyrrolidone/1-eicosene) [PVPE] | no demonstrable dermal toxicity |
